Results: PubChem BioAssay AID248 (DTP/NCI, 2004)
Several values for one entry are separate records, joined by “and”; a condition that tells them apart may be missing. Identical values can stand only once. Inconclusive results and toxic doses are left out. Cut-off read from the data, not from the text of the source: active = T/C of 150% or more; inactive = T/C below 125%. Peptide text beside a SMILES is read from it. * marks the point of attachment. Cbz = O=C(OCc1ccccc1)*; Bn = c1ccc(C*)cc1

Tested on: L1210 leukemia ip in BDF1 mice, survival T/C
Assay: NCI In Vivo Anticancer Drug Screen. Data for tumor model L1210 Leukemia (intraperitoneal) in B6D2F1 (BDF1) mice
Conditions: endpoint: mean survival time, higher = longer survival
Method in brief: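 In this screen, tumor-bearing mice given compound are compared to those given vehicle, and their survival values are reported as a treated-to-control quotient.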

[1] = dose: 100.0 mg/kg/injection, schedule: Q01DX009 (ip), vehicle: saline with Tween-80
[2] = dose: 100.0 mg/kg/injection, schedule: Q04DX003 (ip), vehicle: saline with Tween-80
[3] = dose: 200.0 mg/kg/injection, schedule: Q01DX009 (ip), vehicle: saline with Tween-80
[4] = dose: 200.0 mg/kg/injection, schedule: Q04DX003 (ip), vehicle: saline with Tween-80
[5] = dose: 400.0 mg/kg/injection, schedule: Q01DX009 (ip), vehicle: saline with Tween-80
[6] = dose: 50.0 mg/kg/injection, schedule: Q01DX001 (ip), vehicle: carboxymethylcellulose (CMC)
[7] = dose: 100.0 mg/kg/injection, schedule: Q01DX001 (ip), vehicle: carboxymethylcellulose (CMC)
[8] = dose: 200.0 mg/kg/injection, schedule: Q01DX001 (ip), vehicle: carboxymethylcellulose (CMC)
[9] = dose: 400.0 mg/kg/injection, schedule: Q01DX001 (ip), vehicle: carboxymethylcellulose (CMC)
[10] = dose: 100.0 mg/kg/injection, schedule: Q04DX002 (ip), vehicle: Klucel (hydroxypropylcellulose) (HPC)
[11] = dose: 200.0 mg/kg/injection, schedule: Q04DX002 (ip), vehicle: Klucel (hydroxypropylcellulose) (HPC)
[12] = dose: 400.0 mg/kg/injection, schedule: Q04DX002 (ip), vehicle: Klucel (hydroxypropylcellulose) (HPC)
[13] = dose: 50.0 mg/kg/injection, schedule: Q01DX009 (ip), vehicle: saline
[14] = dose: 100.0 mg/kg/injection, schedule: Q01DX009 (ip), vehicle: saline
[15] = dose: 200.0 mg/kg/injection, schedule: Q01DX009 (ip), vehicle: saline
[16] = dose: 100.0 mg/kg/injection, schedule: Q01DX001 (ip), vehicle: saline
[17] = dose: 200.0 mg/kg/injection, schedule: Q01DX001 (ip), vehicle: saline
[18] = dose: 400.0 mg/kg/injection, schedule: Q01DX001 (ip), vehicle: saline

Measured: T/C

CCCCCCCCCCCCCC(=O)CC
inactive: dose: 90.0 mg/kg/injection, schedule: Q01DX009 (ip), vehicle: saline with Tween-80 98 % of control | [1] 92 % of control and 96 % of control | [2] 96 % of control | dose: 135.0 mg/kg/injection, schedule: Q01DX009 (ip), vehicle: saline with Tween-80 87 % of control | [3] 87 % of control and 88 % of control | [4] 96 % of control | dose: 300.0 mg/kg/injection, schedule: Q01DX009 (ip), vehicle: saline with Tween-80 92 % of control | [5] 97 % of control and 105 % of control | dose: 400.0 mg/kg/injection, schedule: Q04DX003 (ip), vehicle: saline with Tween-80 102 % of control

Nc1c(Br)cc2c(c1Br)Cc1cc(Cl)ccc1-2
inactive: [6] 93 % of control | [7] 98 % of control | [8] 93 % of control | [9] 93 % of control

O=C(O)/C(Br)=C/C(=O)c1ccccc1
inactive: dose: 75.0 mg/kg/injection, schedule: Q01DX001 (ip), vehicle: steriod suspending solution 106 % of control | dose: 300.0 mg/kg/injection, schedule: Q01DX001 (ip), vehicle: steriod suspending solution 109 % of control

COc1ccc(NC(=O)CC(C)(C)C(=O)O)cc1
inactive: [1] 94 % of control | [3] 92 % of control | [5] 90 % of control

CNC(=O)NC1C(O)C(OC)OC2COC(c3ccccc3)OC21 (stereo unspecified)
inactive: [2] 92 % of control | [4] 92 % of control

O=c1[nH]cc(CCC(F)(F)F)c(=O)[nH]1
inactive: dose: 100.0 mg/kg/injection, schedule: Q04DX002 (ip), vehicle: sodium bicarbonate 102 % of control | dose: 200.0 mg/kg/injection, schedule: Q04DX002 (ip), vehicle: sodium bicarbonate 102 % of control

O=C(/C=N/O)Nc1ccc([N+](=O)[O-])cc1
inactive: [10] 92 % of control | [11] 100 % of control | [12] 92 % of control

COC(=O)C(NC(=O)C(CSCc1ccccc1)NC(=O)OCc1ccccc1)C(C)C (stereo unspecified) (Cbz-Cys(Bn)-Val-OMe; configuration not given here)
inactive: dose: 100.0 mg/kg/injection, schedule: Q04DX003 (ip), vehicle: Klucel (hydroxypropylcellulose) (HPC) 95 % of control | dose: 200.0 mg/kg/injection, schedule: Q04DX003 (ip), vehicle: Klucel (hydroxypropylcellulose) (HPC) 97 % of control | dose: 400.0 mg/kg/injection, schedule: Q04DX003 (ip), vehicle: Klucel (hydroxypropylcellulose) (HPC) 95 % of control

Cc1cccc(NC(=O)NCCN(C)Cc2ccccc2)c1
inactive: [6] 101 % of control | [7] 98 % of control | [8] 101 % of control | [9] 104 % of control

Cc1ccc(S(=O)(=O)OC2CCN(C)CC2)cc1
inactive: dose: 6.0 mg/kg/injection, schedule: Q01DX009 (ip), vehicle: saline 91 % of control | dose: 12.0 mg/kg/injection, schedule: Q01DX009 (ip), vehicle: saline 93 % of control | dose: 12.0 mg/kg/injection, schedule: Q04DX003 (ip), vehicle: saline 102 % of control | dose: 25.0 mg/kg/injection, schedule: Q01DX005 (ip), vehicle: saline 97 % of control | dose: 25.0 mg/kg/injection, schedule: Q01DX009 (ip), vehicle: saline 93 % of control and 94 % of control | dose: 25.0 mg/kg/injection, schedule: Q04DX003 (ip), vehicle: saline 96 % of control | dose: 50.0 mg/kg/injection, schedule: Q01DX005 (ip), vehicle: saline 97 % of control | [13] 96 % of control | dose: 100.0 mg/kg/injection, schedule: Q01DX005 (ip), vehicle: saline 97 % of control and 99 % of control | [14] 112 % of control

Nc1nc2c(c(-c3ccc(Cl)cc3)n1)CN(c1ccc(Br)cc1)C2=O
inactive: [13] 95 % of control | [14] 108 % of control | dose: 100.0 mg/kg/injection, schedule: Q04DX003 (ip), vehicle: saline 97 % of control | [15] 92 % of control | dose: 200.0 mg/kg/injection, schedule: Q04DX003 (ip), vehicle: saline 100 % of control | dose: 400.0 mg/kg/injection, schedule: Q04DX003 (ip), vehicle: saline 92 % of control

COc1ccc(CCCNCCCCCCNCCCc2ccc(OC)cc2)cc1
inactive: dose: 25.0 mg/kg/injection, schedule: Q01DX009 (ip), vehicle: Klucel (hydroxypropylcellulose) (HPC) 104 % of control | dose: 50.0 mg/kg/injection, schedule: Q01DX009 (ip), vehicle: Klucel (hydroxypropylcellulose) (HPC) 93 % of control | dose: 50.0 mg/kg/injection, schedule: Q04DX002 (ip), vehicle: Klucel (hydroxypropylcellulose) (HPC) 96 % of control | dose: 100.0 mg/kg/injection, schedule: Q01DX009 (ip), vehicle: Klucel (hydroxypropylcellulose) (HPC) 86 % of control | [10] 96 % of control

Nc1ccc(Cc2ccncc2)cc1
inactive: dose: 25.0 mg/kg/injection, schedule: Q01DX001 (ip), vehicle: carboxymethylcellulose (CMC) 105 % of control | dose: 25.0 mg/kg/injection, schedule: Q01DX009 (ip), vehicle: carboxymethylcellulose (CMC) 102 % of control and 92 % of control | dose: 25.0 mg/kg/injection, schedule: Q04DX002 (ip), vehicle: carboxymethylcellulose (CMC) 94 % of control | dose: 25.0 mg/kg/injection, schedule: Q04DX003 (ip), vehicle: carboxymethylcellulose (CMC) 97 % of control | [6] 102 % of control | dose: 50.0 mg/kg/injection, schedule: Q01DX009 (ip), vehicle: carboxymethylcellulose (CMC) 95 % of control and 98 % of control | dose: 50.0 mg/kg/injection, schedule: Q04DX002 (ip), vehicle: carboxymethylcellulose (CMC) 93 % of control and 103 % of control | dose: 50.0 mg/kg/injection, schedule: Q04DX003 (ip), vehicle: carboxymethylcellulose (CMC) 100 % of control | [7] 103 % of control | dose: 100.0 mg/kg/injection, schedule: Q01DX009 (ip), vehicle: carboxymethylcellulose (CMC) 94 % of control and 103 % of control | dose: 200.0 mg/kg/injection, schedule: Q04DX002 (ip), vehicle: carboxymethylcellulose (CMC) 94 % of control

COc1ccc(CC(C(=O)O)c2ccccc2C(=O)O)cc1OC (stereo unspecified)
inactive: [16] 101 % of control | [17] 97 % of control | [18] 97 % of control

CCOC(=O)CN1C(=O)NC(CC)(CC)C1=O
inactive: [14] 96 % of control | dose: 100.0 mg/kg/injection, schedule: Q04DX003 (ip), vehicle: acetone 104 % of control | [15] 94 % of control | dose: 200.0 mg/kg/injection, schedule: Q04DX003 (ip), vehicle: acetone 107 % of control | dose: 400.0 mg/kg/injection, schedule: Q01DX009 (ip), vehicle: saline 105 % of control | dose: 400.0 mg/kg/injection, schedule: Q04DX003 (ip), vehicle: acetone 102 % of control

CCC[CH2][Sn]1([CH2]CCC)[O]C(=O)CCC(=O)[O]1
inactive: dose: 1.56 mg/kg/injection, schedule: Q01DX009 (ip), vehicle: Klucel (hydroxypropylcellulose) (HPC) 113 % of control | dose: 3.12 mg/kg/injection, schedule: Q01DX009 (ip), vehicle: Klucel (hydroxypropylcellulose) (HPC) 87 % of control

CCCN1C(c2ccccc2)=CN(Cc2ccccc2)C=C1c1ccccc1
inactive: [10] 95 % of control | [11] 103 % of control | [12] 106 % of control

NC(=O)CCCCCCCCC(N)=O
inactive: [16] 98 % of control | [17] 98 % of control | [18] 92 % of control
